Experimental data as given in patent publication US10729700B2, “Methods and compositions of bile acids and salts for reduction of fat” (priority 2014, dated 2020).
Read-outs that look alike come from different tables or passages of the source.

Columns and labels:
[1] = test system: Inguinal fat (subcutaneous fat) pads; test: Ex vivo fat lysis assay (MTT); type: cell-based, diet induced obese mice; settings: for ED50 (% w/v); EC50 values of bile salts required to lysis of fat tissues ex vivo: fat tissues of high fat diet mice, 10 minutes, MTT; for effect of increased pH of solution on fat lysis activities: pH 6.0 ˜pH 9.0, bile salt at EC50 in pH 7.4; for EC50 fold higher than DCA or CDCA, ex vivo: relative to DCA or CDCA; for fat lysis activities above the pH 9: solutions above the pH 9
Experimental: Inguinal fat (subcutaneous fat) pads were excised from diet induced obese mice and chopped to about the same size. 100 mg tissue samples were transferred to 48 well plates and incubated with 350 μl of various concentrations and pH of DCA, CDCA, CA, and phosphate buffer for 10 minutes. 70 μl of MTT solution (5 mg/ml in PBS) was added into each well and incubated for overnight at 37° C. The solution was removed and precipitated formazan product was dissolved in 300 μl of DMSO. Tissue viability was monitored by measuring the optical density at 570 nm (OD570) using a microplate reader.

[2] = test system: inguinal fat pads of obese mice; test: Quantitation of in vivo necrotic area (TTC staining) and histology of injected fat pads; settings: for tissue lysis effect with higher concentration: necrotic area, FIGS. 12B and 12C
Experimental: Various concentrations of bile salts (DCA, CDCA, and CA) solutions in 100 μl volume of PBS were injected to the inguinal fat pads of obese mice. Mice were sacrificed at 1 day after the injection. Mouse inguinal fat pads were stained with 2% TTC (Sigma-Aldrich Chemical, St. Louis, Mo., USA) in PBS for 2 hour to identify the non-necrotic and necrotic areas and subsequently immersed in 10% formalin to enhance the contrast. […] The appearance and area of necrotic fat regions were captured and imaged by scanner. The necrotic area of fat pad treated DCA, CDCA, CA, and PBS was calculated by Image J.

rat paws [3] = settings: in vivo
Experimental: (§1) Male SD rats (6 weeks old) were purchased from Koatech Co. (Seoul, Korea) and used after 1 week of acclimation. Rats (200˜230 g) were randomly selected and the volume of intact rats paw was measured in all groups using a digital caliper (Bluebird, Seoul, Korea). […] To induce the edema, rats received 100 μl of various bile salts and PBS into the plantar region of the hind foot of rats. Measurements of the paw volume were performed by a caliper immediately before the bile salts injection and 4 hours after injection.

[4] = Stability of bile salts in aqueous solution; settings: for Solution stability of bile salt: 1% in 10 mM phosphate buffer; for pH stability: summary, Table 4; for pH in which aqueous solution remained stable: 1% (w/v), 10 mM phosphate buffer, 25° C.
Experimental: 0.01 g of bile salts (UDCA, DCA, CDCA and CA) were dissolved in 1 ml of phosphate buffer and placed at room temperature for 10 days.

[5] = test system: inguinal fat pads of obese mice; design: Inflammation of injection site: key to the marks not given beside the values; settings: mouse, in vivo
3T3-L1 adipocytes = test: Cell lysis effect by detergent in vitro (MTT assay); type: cell-based; settings: for EC50 (concentration that kills 50% of the cells) / ED50 (% w/v); EC50 values of bile salts required to lysis of adipose cells in vitro: differentiated 3T3-L1 adipocytes; for ED50 (% w/v); EC50 values of bile salts required to lysis of adipose cells in vitro: 1 hour, MTT
Experimental: To induce adipocyte differentiation, 3T3-L1 pre-adipocytes were seeded in 96-well plate (5×10^3 cells/well) and grown until 2 days post-confluence (day 0) and then treated for 2 days with growth media plus MDI (0.5 μM methylisobutylxanthine, 1 μM dexamethasone and 10 ug/ml insulin; all from Sigma-Aldrich Chemical, St. Louis, Mo., USA), followed by 2 days of treatment with the media containing 10 ug/ml insulin alone. Medium was replaced every 2 days for the following 8 days. Differentiated adipocytes in 96 well plate were washed twice with PBS and incubated in various concentrations of bile salts in serum free DMEM. After 1 hour incubation at 37° C., media were changed and 20 μl of MTT solution (5 mg MTT/ml in PBS) was added into each well and incubated for 1 hour at 37° C. The resultant formazan product was dissolved in 100 μl of DMSO/well and cell viability was determined by measuring the optical density at 570 nm (OD570) using a microplate reader.

[6] = test system: inguinal fat pad of obese mouse; test: In vivo monitoring of bile salts induced fat loss; settings: 1% solutions, 5 times during 2 weeks
rat paws [7] = test: Bile salt-induced paw edema; settings: 4 hours after injection; for severity of edema (paw thickness): concentrations and pHs showing similar tissue lysis effects
Experimental: as §1

mice skin = test: In vivo monitoring of adverse events on the skin; settings: for skin lesions on the injected area: subcutaneous, pH 7.4, 0.5-1.5%
Experimental: Injections were repeated 1 more times 3 days after first injection. […] The severity of skin lesion was assessed using the following criteria. The total skin severity score was defined as the sum of the individual scores for each of the following character and length of lesion. Length of lesion is determined by measuring the longest diameter of the largest lesion identified. Measured length should involve the lesion only and not cross over clinically normal skin. The length of lesion involvement within each injected site was scored from 0 to 3, where 0=no involvement; 1=<0.2 cm, 2=0.2˜0.5 cm, 3=>0.5 cm of the length of site affected. The character of lesion was scored from 0 to 3, where 0=no lesion present, 1=excoriation only one or one, small punctate crust (<2 mm), 2=multiple, small punctate crusts or coalescing crust (>2 mm), 3=erosion or ulceration.

tails of female ICR mice = test: In vivo monitoring of tissue specific effects of bile salts (tail injection); settings: pH 7.4 solution; for skin layers of tails / fat layers of tails: 14 days post-injection; for fat layers of tails: compared to saline

C[C@H](CCC(=O)O)[C@H]1CC[C@H]2[C@@H]3C[C@H](O)[C@@H]4C[C@H](O)CC[C@]4(C)[C@H]3CC[C@]12C [HDCA, hyodeoxycholate]
EC50 concentrations, ex vivo condition [1]: 0.0250% | ED50 (% w/v); EC50 values of bile salts required to lysis of fat tissues ex vivo [1]: 0.0250 % w/v | effect of increased pH of solution on fat lysis activities [1]: greatly diminishes the fat lysis activities | EC50 fold higher than DCA or CDCA, ex vivo [1]: 1.4 fold | tissue lysis effect with higher concentration [2]: did not increased proportionally | Adverse event: edema (rat paws [3]): ++ | severity of edema (paw thickness) (rat paws [3]): slightly lower symptom | Solution stability of bile salt ([4]; pH 6.5, 25° C.): Gelation | Solution stability of bile salt ([4]; pH 6.7, 25° C.): Gelation | Solution stability of bile salt ([4]; pH 7.0, 25° C.): Gelation | Solution stability of bile salt ([4]; pH 7.2, 25° C.): Gelation | Solution stability of bile salt ([4]; pH 7.4, 25° C.): Stable | Solution stability of bile salt ([4]; pH 7.6, 25° C.): Stable | Solution stability of bile salt ([4]; pH 7.8, 25° C.): Stable | Solution stability of bile salt ([4]; pH 8.0, 25° C.): Stable | Solution stability of bile salt ([4]; pH 8.3, 25° C.): Stable | pH stability [4]: <7.4 | Inflammation of injection site [5]: +++ | histological changes in fat pads (H & E) [5]: Infiltration of polymorphonuclear (PMN) cells into the fat pad tissue was observed | inflammation after injection to subcutaneous fat [5]: severe inflammation | EC50 (concentration that kills 50% of the cells) (3T3-L1 adipocytes): 0.42% | ED50 (% w/v); EC50 values of bile salts required to lysis of adipose cells in vitro (3T3-L1 adipocytes): 0.249 % w/v | cell killing effect compared to CA (3T3-L1 adipocytes; similar concentration (0˜1%)): slightly higher cell killing effect compared to CA

deoxycholate [DCA]
EC50 concentrations, ex vivo condition [1]: 0.0179% | ED50 (% w/v); EC50 values of bile salts required to lysis of fat tissues ex vivo [1]: 0.0179 % w/v | effect of increased pH of solution on fat lysis activities [1]: do not show greatly decreased fat lysis activity | histology of injected area (H & E) [6]: Fibrotic areas | lesions in the administered area of fat tissues [6]: yellowish lesions | severity of edema (paw thickness) (rat paws [7]): most severe edema phenotype | skin lesions (mice skin; higher concentrations): Large lesions, erosions and ulcers | skin lesions (mice skin; lowest dose (0.5%)): small punctate lesions | skin lesions on the injected area (mice skin): severe skin lesions | tissue lysis activity at pH 8.3 compared with pH 7.4 ([2]; necrotic area after injection): lower than the activity of DCA preparation in condition of pH 7.4 | skin layers of tails (tails of female ICR mice): not severely damaged | fat layers of tails (tails of female ICR mice): disrupted | damages of muscles in tails (tails of female ICR mice; same concentration of DCA and CA): prominent | pH in which aqueous solution remained stable [4]: lower than 8.3 | Solution stability of bile salt ([4]; pH 6.5, 25° C.): Gelation | Solution stability of bile salt ([4]; pH 6.7, 25° C.): Gelation | Solution stability of bile salt ([4]; pH 7.0, 25° C.): Gelation | Solution stability of bile salt ([4]; pH 7.2, 25° C.): Gelation | Solution stability of bile salt ([4]; pH 7.4, 25° C.): Gelation | Solution stability of bile salt ([4]; pH 7.6, 25° C.): Gelation | Solution stability of bile salt ([4]; pH 7.8, 25° C.): Gelation | Solution stability of bile salt ([4]; pH 8.0, 25° C.): Gelation | Solution stability of bile salt ([4]; pH 8.3, 25° C.): Stable | pH stability [4]: <8.3 | EC50 (concentration that kills 50% of the cells) (3T3-L1 adipocytes): 0.051% | ED50 (% w/v); EC50 values of bile salts required to lysis of adipose cells in vitro (3T3-L1 adipocytes): 0.0509 % w/v | viability of adipocyte cells (3T3-L1 adipocytes; low concentration (below 0.1%)): reduced the viability of adipocyte cells

C[C@H](CCC(=O)O)[C@H]1CC[C@H]2[C@@H]3[C@@H](O)C[C@@H]4C[C@H](O)CC[C@]4(C)[C@H]3CC[C@]12C [UDCA, ursodeoxycholate]
severity of edema (paw thickness) (rat paws [7]): slightly lower symptom | histological changes in fat pads (H & E) ([2]; 1.5% solution): Infiltration of polymorphonuclear (PMN) cells into the fat pad tissue was observed | tissue lysis effect with higher concentration [2]: did not increased proportionally | inflammation after injection to subcutaneous fat ([2]; one time injection): severe inflammation | pH in which aqueous solution remained stable [4]: < 7.8 | Solution stability of bile salt ([4]; pH 6.5, 25° C.): Precipitation | Solution stability of bile salt ([4]; pH 6.7, 25° C.): Precipitation | Solution stability of bile salt ([4]; pH 7.0, 25° C.): Precipitation | Solution stability of bile salt ([4]; pH 7.2, 25° C.): Precipitation | Solution stability of bile salt ([4]; pH 7.4, 25° C.): Precipitation | Solution stability of bile salt ([4]; pH 7.6, 25° C.): Precipitation | Solution stability of bile salt ([4]; pH 7.8, 25° C.): Stable | Solution stability of bile salt ([4]; pH 8.0, 25° C.): Stable | Solution stability of bile salt ([4]; pH 8.3, 25° C.): Stable | pH stability [4]: <7.8 | EC50 (concentration that kills 50% of the cells) (3T3-L1 adipocytes): 0.25% | ED50 (% w/v); EC50 values of bile salts required to lysis of adipose cells in vitro (3T3-L1 adipocytes): 0.328 % w/v

C[C@H](CCC(=O)O)[C@H]1CC[C@H]2[C@@H]3[C@H](O)C[C@@H]4C[C@H](O)CC[C@]4(C)[C@H]3CC[C@]12C [CDCA, chenodeoxycholate]
EC50 concentrations, ex vivo condition [1]: 0.0180% | ED50 (% w/v); EC50 values of bile salts required to lysis of fat tissues ex vivo [1]: 0.018 % w/v | effect of increased pH of solution on fat lysis activities [1]: greatly diminishes the fat lysis activities | fat lysis activities above the pH 9 [1]: mostly lost their fat lysis activities | histology of injected area (H & E) [6]: Fibrotic areas | lesions in the administered area of fat tissues [6]: yellowish lesions | severity of edema (paw thickness) (rat paws [7]): slightly lower symptom | concentration enough to show similar tissue lysis effect with 1% DCA (pH 8.3) ([2]; CA at pH 7.0, CDCA at pH 7.4): 0.6% | concentration showing similar tissue lysis activity with the injection of 1% DCA ([2]; same pH (pH 7.4)): 1% | Solution stability of bile salt ([4]; pH 6.5, 25° C.): Gelaton | Solution stability of bile salt ([4]; pH 6.7, 25° C.): Gelation | Solution stability of bile salt ([4]; pH 7.0, 25° C.): Gelation | Solution stability of bile salt ([4]; pH 7.2, 25° C.): Precipitation | Solution stability of bile salt ([4]; pH 7.4, 25° C.): Stable | Solution stability of bile salt ([4]; pH 7.6, 25° C.): Stable | Solution stability of bile salt ([4]; pH 7.8, 25° C.): Stable | Solution stability of bile salt ([4]; pH 8.0, 25° C.): Stable | Solution stability of bile salt ([4]; pH 8.3, 25° C.): Stable | pH stability [4]: <7.4 | EC50 (concentration that kills 50% of the cells) (3T3-L1 adipocytes): 0.060% | ED50 (% w/v); EC50 values of bile salts required to lysis of adipose cells in vitro (3T3-L1 adipocytes): 0.0597 % w/v | viability of adipocyte cells (3T3-L1 adipocytes; low concentration (below 0.1%)): reduced the viability of adipocyte cells

C[C@H](CCC(=O)NCCS(=O)(=O)O)[C@H]1CC[C@H]2[C@@H]3[C@@H](O)C[C@@H]4C[C@H](O)CC[C@]4(C)[C@H]3CC[C@]12C [TUDCA, taurourosodeoxycholate]
viability of adipocyte cells (3T3-L1 adipocytes; up to 2% concentration): did not reduce the viability of adipocyte cells

C[C@H](CCC(=O)O)[C@H]1CC[C@H]2[C@@H]3[C@H](O)C[C@@H]4C[C@H](O)CC[C@]4(C)[C@H]3C[C@H](O)[C@]12C [CA, cholate]
EC50 concentrations, ex vivo condition [1]: 0.0727% | ED50 (% w/v); EC50 values of bile salts required to lysis of fat tissues ex vivo [1]: 0.0727 % w/v | effect of increased pH of solution on fat lysis activities [1]: greatly diminishes the fat lysis activities | EC50 fold higher than DCA or CDCA, ex vivo [1]: 4 fold | fat lysis activities above the pH 9 [1]: mostly lost their fat lysis activities | histology of injected area (H & E) [6]: Fibrotic areas | lesions in the administered area of fat tissues [6]: yellowish lesions | increment of foot thickness relative to the case of DCA (rat paws [7]): less than one-half | severity of edema (paw thickness) (rat paws [7]): very mild | skin lesions (mice skin; higher dose (1.5%)): Only small punctate lesions | skin damage score (mice skin; highest dose of CA (1.5%) compared to lowest dose of DCA (0.5%)): lower damage score | skin lesions (mice skin; lower doses): no detectable lesions | skin lesions on the injected area (mice skin): significantly less lesions | concentration enough to show similar necrotic effects with DCA and CDCA ([2]; mouse, in vivo): about two fold higher concentration | concentration enough to show similar tissue lysis effect with 1% DCA (pH 8.3) ([2]; mouse, in vivo): 1.5% | necrotic areas at the same concentration ([2]; mouse, in vivo): smaller than DCA or CDCA | concentration showing similar tissue lysis activity with the injection of 1% DCA ([2]; mouse, in vivo, pH 7.4): about 2% | skin layers of tails (tails of female ICR mice): not severely damaged | fat layers of tails (tails of female ICR mice): disrupted | pH in which aqueous solution remained stable [4]: < 7.0 | Solution stability of bile salt ([4]; pH 6.5, 25° C.): Precipitation | Solution stability of bile salt ([4]; pH 6.7, 25° C.): Precipitation | Solution stability of bile salt ([4]; pH 7.0, 25° C.): Stable | Solution stability of bile salt ([4]; pH 7.2, 25° C.): Stable | Solution stability of bile salt ([4]; pH 7.4, 25° C.): Stable | Solution stability of bile salt ([4]; pH 7.6, 25° C.): Stable | Solution stability of bile salt ([4]; pH 7.8, 25° C.): Stable | Solution stability of bile salt ([4]; pH 8.0, 25° C.): Stable | Solution stability of bile salt ([4]; pH 8.3, 25° C.): Stable | pH stability [4]: <7.0 | EC50 (concentration that kills 50% of the cells) (3T3-L1 adipocytes): 0.42% | ED50 (% w/v); EC50 values of bile salts required to lysis of adipose cells in vitro (3T3-L1 adipocytes): 0.42 % w/v | viability of adipocyte cells (3T3-L1 adipocytes; up to 2% concentration): showed cell killing
